Test results: US11793982B2, “Drug delivery devices and methods of fabrication and use therefor” (Purdue Research Foundation, priority 2020, dated 2023)

What was measured:
[1] = test system: epidermis and subcutaneous muscle on the backside of mice; experiment: In vivo tissue compatibility, real-time bioluminescence (luminol) imaging of acute inflammation; details: five hours post-injection
B16F10 melanoma cells = experiment: Murine melanoma model, inhibition of post-surgical residual melanoma; format: in vivo, C57BL/6 mice
[2] = test system: B16F10 murine melanoma cells; details: cited from earlier work
mice = details: cited from earlier work

CCCCCCCCCCCCCC(=O)O[C@@H]1[C@@H](C)[C@@]2(O)[C@@H](C=C(CO)C[C@]3(O)C(=O)C(C)=C[C@@H]23)[C@@H]2C(C)(C)[C@]12OC(C)=O [PMA, phorbol 12-myristate 13-acetate]
acute inflammation at the implemented sites [1]: acute inflammation appeared

COc1cccc2c1C(=O)c1c(O)c3c(c(O)c1C2=O)C[C@@](O)(C(=O)CO)C[C@@H]3O[C@H]1C[C@H](N)[C@H](O)[C@H](C)O1 [DOX, doxorubicin]
mice with significant growth of the tumors (B16F10 melanoma cells; intratumoral syringe injection, single dose 50 μl, n=5, ten days post-inoculation): four out of five mice
local skin lesions (B16F10 melanoma cells; syringe injection): local skin lesions were observed
half maximal inhibitory concentration (IC50) [2]: about 0.3 μg/ml
lethal dose (LD50) (mice): about 192 μg
